For six compounds, IC50 results are on record in publication PMC4749519, “Isoprenylated Flavonoids with PTP1B Inhibition from Macaranga denticulata” (Natural Products and Bioprospecting, 2016).

Molecules are shown by their SMILES.

The assay addresses T1, protein tyrosine phosphatase 1B (PTP1B) (Homo sapiens, UniProt P18031).
T1 sequence (P18031 1-435): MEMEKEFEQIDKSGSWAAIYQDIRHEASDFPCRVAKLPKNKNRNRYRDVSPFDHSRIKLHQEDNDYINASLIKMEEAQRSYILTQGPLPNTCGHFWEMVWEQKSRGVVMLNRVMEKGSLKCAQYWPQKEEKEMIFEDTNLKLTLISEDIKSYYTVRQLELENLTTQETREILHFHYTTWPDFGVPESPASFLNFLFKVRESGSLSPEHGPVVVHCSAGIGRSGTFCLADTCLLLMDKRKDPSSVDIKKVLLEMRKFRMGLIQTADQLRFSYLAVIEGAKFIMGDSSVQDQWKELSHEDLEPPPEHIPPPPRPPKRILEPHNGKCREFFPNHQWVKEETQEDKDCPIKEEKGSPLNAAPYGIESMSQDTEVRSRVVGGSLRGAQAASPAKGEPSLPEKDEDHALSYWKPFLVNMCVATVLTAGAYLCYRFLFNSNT
Nature of the assay: Assay of PTP1B activity (in vitro enzyme inhibition). The following applies: in vitro PTP1B enzymatic activity; oleanolic acid as positive control; read-out: IC50 ± SD, inhibitory activity against PTP1B. In kind it is biochemical. The protocol: The bioassay procedure was the same as that reported previously. The result of PTP1B inhibition was expressed as IC50, which was calculated with Prism 4 software (Graphpad, San Diego, CA).
With `COc1ccc(/C=C/C(=O)c2c(O)c(C)c(O)c3c2OC(C)(C)C=C3)cc1` [Compound 4, (2E)-1-(5,7-dihydroxy-2,2,6-trimethyl-2H-benzopyran-8-yl)-3-(4-methoxyphenyl)-2-propen-1-one], the IC50 is 48.8 ± 5.5 µM.

Consider `CC1(C)C=Cc2c(O)cc(O)c(C(=O)/C=C/c3ccccc3)c2O1` [Compound 5, (2E)-1-(5,7-dihydroxy-2,2-dimethyl-2H-benzopyran-8-yl)-3-phenyl-2-propen-1-one], for which the IC50 came out at 19.3 ± 1.4 µM.

With `CC1(C)C=Cc2c(O)c(C(=O)/C=C/c3ccc(O)cc3)c3c(c2O1)C=CC(C)(C)O3` [Compound 6, laxichalcone], the concentration for half-maximal inhibition (IC50) turned out to be 20.7 ± 5.3 µM.

For the compound `CC(C)=CCC/C(C)=C/Cc1c(O)cc2oc(-c3ccc(O)cc3)c(O)c(=O)c2c1O` [Compound 7, macarangin], the IC50 was 22.7 ± 4.6 µM.

Take `CC(C)=CCC/C(C)=C/Cc1c(O)cc2c(c1O)C(=O)[C@H](O)[C@@H](c1ccc(O)cc1)O2` [Compound 8, bonanniol A]: the IC50 turned out to be 15.2 ± 2.8 µM.

Regarding `CC(C)=CCC/C(C)=C/Cc1c(O)cc2c(c1O)C(=O)C[C@@H](c1ccc(O)cc1)O2` [Compound 9, bonannione A], the IC50 came out at 14 ± 1.2 µM.

What is called IC50 is the point on the concentration scale where inhibition reaches its midpoint.
